Laboratory results taken from paper PMC9186362, “Design and biological evaluation of substituted 5,7-dihydro-6H-indolo[2,3-c]quinolin-6-one as novel selective Haspin inhibitors” (Journal of Enzyme Inhibition and Medicinal Chemistry, 2022).

Tests used:
Experiment in all cases: SelectScreen ZLYTE
Type in all cases: biochemical
[1] = biological target: T1, AKT3 (PKB gamma) (Homo sapiens, UniProt Q9Y243); details: ATP Km, read-out: Percentage of inhibition
T1 construct: purchased Life Technologies
Method in brief: (§1)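 Compound tested at 1 μM only; no dose–response. Data are % inhibition from a whole-panel kinase screen.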

[2] = biological target: AMPK (A1/B2/G3) (Homo sapiens, UniProt Q13131); details: ATP Km, read-out: Percentage of inhibition
Method in brief: as §1

[3] = biological target: T2, AMPK (A2/B1/G3) (Homo sapiens, UniProt P54646); details: ATP Km, read-out: Percentage of inhibition
T2 construct: purchased Life Technologies (SelectScreen Whole Panel service)
Method in brief: as §1

[4] = biological target: T3, BRAF (Homo sapiens, UniProt P15056); details: ATP 100 µM, read-out: Percentage of inhibition
T3 construct: purchased Life Technologies (SelectScreen Whole Panel)
Method in brief: as §1

[5] = biological target: T4, BTK (Homo sapiens, UniProt Q06187); details: ATP Km, read-out: Percentage of inhibition
T4 construct: purchased Life Technologies (SelectScreen service)
Method in brief: as §1

[6] = biological target: CDC42 BPA (MRCKA) (Homo sapiens, UniProt Q5VT25); details: ATP Km, read-out: Percentage of inhibition
Method in brief: as §1

[7] = biological target: T5, CDK1/cyclin B (Homo sapiens, UniProt P06493); details: ATP Km, read-out: Percentage of inhibition
T5 construct: purchased Life Technologies
Method in brief: as §1

[8] = biological target: CSF1R (FMS) (Homo sapiens, UniProt P07333); details: ATP Km, read-out: Percentage of inhibition
Method in brief: as §1

[9] = biological target: CSNK1A1L (Homo sapiens, UniProt Q8N752); details: ATP Km, read-out: Percentage of inhibition
Method in brief: as §1

[10] = biological target: T6, CSNK1G3 (CK1 gamma 3) (Homo sapiens, UniProt Q9Y6M4); details: ATP Km, read-out: Percentage of inhibition
T6 construct: purchased Life Technologies
Method in brief: as §1

[11] = biological target: T7, DYRK1A (Homo sapiens, UniProt Q13627); details: ATP Km, read-out: Percentage of inhibition
T7 construct: purchased Life Technologies
Method in brief: as §1

[12] = biological target: T8, EEF2K (Homo sapiens, UniProt O00418); details: ATP Km, read-out: Percentage of inhibition
T8 construct: purchased Life Technologies (SelectScreen)
Method in brief: as §1

[13] = biological target: T9, EGFR (ErbB1) G719C (Homo sapiens, UniProt P00533, G719C); details: ATP Km, read-out: Percentage of inhibition
T9 construct: purchased Life Technologies (SelectScreen)
Method in brief: as §1

[14] = biological target: T10, EGFR (ErbB1) T790M (Homo sapiens, UniProt P00533, T790M); details: ATP Km, read-out: Percentage of inhibition
T10 construct: purchased Life Technologies
Method in brief: as §1

[15] = biological target: EPHB2 (Homo sapiens, UniProt P29323); details: ATP Km, read-out: Percentage of inhibition
Method in brief: as §1

[16] = biological target: T11, FGR (Homo sapiens, UniProt P09769); details: ATP Km, read-out: Percentage of inhibition
T11 construct: purchased Life Technologies (SelectScreen service)
Method in brief: as §1

[17] = biological target: T12, GRK4 (Homo sapiens, UniProt P32298); details: ATP Km, read-out: Percentage of inhibition
T12 construct: purchased Life Technologies
Method in brief: as §1

[18] = biological target: T13, HCK (Homo sapiens, UniProt P08631); details: ATP Km, read-out: Percentage of inhibition
T13 construct: purchased Life Technologies
Method in brief: as §1

[19] = biological target: HIPK1 (Myak) (Homo sapiens, UniProt Q86Z02); details: ATP Km, read-out: Percentage of inhibition
Method in brief: as §1

[20] = biological target: T14, IKBKE (IKK epsilon) (Homo sapiens, UniProt Q14164); details: ATP Km, read-out: Percentage of inhibition
T14 construct: purchased Life Technologies (SelectScreen Whole Panel service)
Method in brief: as §1

[21] = biological target: IRAK4 (Homo sapiens, UniProt Q9NWZ3); details: ATP Km, read-out: Percentage of inhibition
Method in brief: as §1

[22] = biological target: T15, JAK2 JH1 JH2 (Homo sapiens, UniProt O60674); details: ATP Km, read-out: Percentage of inhibition
T15 construct: JAK2 JH1 JH2; purchased Life Technologies
Method in brief: as §1

[23] = biological target: T16, JAK2 JH1 JH2 V617F (Homo sapiens, UniProt O60674, V617F); details: ATP Km, read-out: Percentage of inhibition
T16 construct: JAK2 JH1 JH2; purchased Life Technologies
Method in brief: as §1

[24] = biological target: LCK (Homo sapiens, UniProt P06239); details: ATP Km, read-out: Percentage of inhibition
Method in brief: as §1

[25] = biological target: T17, MAP2K6 (MKK6) (Homo sapiens, UniProt P52564); details: ATP 100 µM, read-out: Percentage of inhibition
T17 construct: purchased Life Technologies (SelectScreen Whole Panel service)
Method in brief: as §1

[26] = biological target: T18, MAPK9 (JNK2) (Homo sapiens, UniProt P45984); details: ATP 100 µM, read-out: Percentage of inhibition
T18 construct: purchased Life Technologies (SelectScreen service)
Method in brief: as §1

[27] = biological target: T19, MERTK (Homo sapiens, UniProt Q12866); details: ATP Km, read-out: Percentage of inhibition
T19 construct: purchased Life Technologies (SelectScreen Whole Panel service)
Method in brief: as §1

[28] = biological target: T20, MET (cMet) Y1235D (Homo sapiens, UniProt P08581, Y1235D); details: ATP Km, read-out: Percentage of inhibition
T20 construct: purchased Life Technologies
Method in brief: as §1

[29] = biological target: MST1R (RON) (Homo sapiens, UniProt Q04912); details: ATP Km, read-out: Percentage of inhibition
Method in brief: as §1

[30] = biological target: T21, NEK4 (Homo sapiens, UniProt P51957); details: ATP Km, read-out: Percentage of inhibition
T21 construct: purchased Life Technologies
Method in brief: as §1

[31] = biological target: T22, NEK6 (Homo sapiens, UniProt Q9HC98); details: ATP Km, read-out: Percentage of inhibition
T22 construct: purchased Life Technologies (SelectScreen)
Method in brief: as §1

[32] = biological target: PAK1 (Homo sapiens, UniProt Q13153); details: ATP Km, read-out: Percentage of inhibition
Method in brief: as §1

[33] = biological target: PAK4 (Homo sapiens, UniProt O96013); details: ATP Km, read-out: Percentage of inhibition
Method in brief: as §1

[34] = biological target: T23, PAK6 (Homo sapiens, UniProt Q9NQU5); details: ATP Km, read-out: Percentage of inhibition
T23 construct: purchased Life Technologies
Method in brief: as §1

[35] = biological target: T24, PAK7 (KIAA1264) (Homo sapiens, UniProt Q9P286); details: ATP Km, read-out: Percentage of inhibition
T24 construct: purchased Life Technologies (SelectScreen)
Method in brief: as §1

[36] = biological target: T25, PDK1 Direct (Homo sapiens, UniProt O15530); details: ATP Km, read-out: Percentage of inhibition
T25 construct: purchased Life Technologies (SelectScreen Whole Panel service)
Method in brief: as §1

[37] = biological target: T26, TBK1 (Homo sapiens, UniProt Q9UHD2); details: ATP Km, read-out: Percentage of inhibition
T26 construct: purchased Life Technologies (SelectScreen Whole Panel service)
Method in brief: as §1

[38] = biological target: YES1 (Homo sapiens, UniProt P07947); details: ATP Km, read-out: Percentage of inhibition
Method in brief: as §1

[39] = biological target: T27, ZAP70 (Homo sapiens, UniProt P43403); details: ATP Km, read-out: Percentage of inhibition
T27 construct: purchased Life Technologies (SelectScreen Whole Panel)
Method in brief: as §1

T16 sequence (O60674 532-1132 V617F limits assumed): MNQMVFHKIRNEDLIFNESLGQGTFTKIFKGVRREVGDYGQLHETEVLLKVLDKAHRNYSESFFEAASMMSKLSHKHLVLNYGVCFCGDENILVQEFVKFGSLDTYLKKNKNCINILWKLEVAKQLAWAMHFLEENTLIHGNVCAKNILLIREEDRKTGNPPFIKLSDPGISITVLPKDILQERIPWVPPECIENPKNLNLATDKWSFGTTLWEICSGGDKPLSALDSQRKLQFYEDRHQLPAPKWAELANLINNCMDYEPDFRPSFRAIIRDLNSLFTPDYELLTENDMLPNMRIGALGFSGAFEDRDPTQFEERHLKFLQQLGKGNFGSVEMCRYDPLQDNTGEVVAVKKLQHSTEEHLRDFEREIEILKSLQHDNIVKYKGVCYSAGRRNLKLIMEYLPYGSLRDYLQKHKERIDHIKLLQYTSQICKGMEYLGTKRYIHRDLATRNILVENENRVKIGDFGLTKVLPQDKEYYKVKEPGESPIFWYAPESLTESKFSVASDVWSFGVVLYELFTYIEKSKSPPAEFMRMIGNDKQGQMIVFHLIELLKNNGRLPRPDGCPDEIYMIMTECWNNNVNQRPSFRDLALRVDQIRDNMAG
T4 sequence (Q06187 whole entry): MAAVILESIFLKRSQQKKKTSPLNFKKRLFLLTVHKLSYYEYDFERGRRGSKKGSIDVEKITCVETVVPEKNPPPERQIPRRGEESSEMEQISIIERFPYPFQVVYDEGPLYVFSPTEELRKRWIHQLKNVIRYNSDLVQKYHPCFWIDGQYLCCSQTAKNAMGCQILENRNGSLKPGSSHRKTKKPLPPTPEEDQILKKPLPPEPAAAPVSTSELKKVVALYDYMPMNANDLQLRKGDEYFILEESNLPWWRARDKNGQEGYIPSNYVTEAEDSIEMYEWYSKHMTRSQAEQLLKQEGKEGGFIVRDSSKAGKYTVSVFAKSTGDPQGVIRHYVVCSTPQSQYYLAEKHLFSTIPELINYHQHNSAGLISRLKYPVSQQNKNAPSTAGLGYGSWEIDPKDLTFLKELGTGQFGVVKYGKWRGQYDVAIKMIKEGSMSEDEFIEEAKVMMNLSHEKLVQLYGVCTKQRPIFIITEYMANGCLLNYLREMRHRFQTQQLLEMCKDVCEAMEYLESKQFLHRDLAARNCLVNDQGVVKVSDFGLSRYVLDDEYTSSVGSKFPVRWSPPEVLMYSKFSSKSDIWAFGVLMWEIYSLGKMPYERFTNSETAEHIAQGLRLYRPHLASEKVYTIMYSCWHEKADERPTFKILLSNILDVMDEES
Chain of EPHB2 (P29323 19-1055): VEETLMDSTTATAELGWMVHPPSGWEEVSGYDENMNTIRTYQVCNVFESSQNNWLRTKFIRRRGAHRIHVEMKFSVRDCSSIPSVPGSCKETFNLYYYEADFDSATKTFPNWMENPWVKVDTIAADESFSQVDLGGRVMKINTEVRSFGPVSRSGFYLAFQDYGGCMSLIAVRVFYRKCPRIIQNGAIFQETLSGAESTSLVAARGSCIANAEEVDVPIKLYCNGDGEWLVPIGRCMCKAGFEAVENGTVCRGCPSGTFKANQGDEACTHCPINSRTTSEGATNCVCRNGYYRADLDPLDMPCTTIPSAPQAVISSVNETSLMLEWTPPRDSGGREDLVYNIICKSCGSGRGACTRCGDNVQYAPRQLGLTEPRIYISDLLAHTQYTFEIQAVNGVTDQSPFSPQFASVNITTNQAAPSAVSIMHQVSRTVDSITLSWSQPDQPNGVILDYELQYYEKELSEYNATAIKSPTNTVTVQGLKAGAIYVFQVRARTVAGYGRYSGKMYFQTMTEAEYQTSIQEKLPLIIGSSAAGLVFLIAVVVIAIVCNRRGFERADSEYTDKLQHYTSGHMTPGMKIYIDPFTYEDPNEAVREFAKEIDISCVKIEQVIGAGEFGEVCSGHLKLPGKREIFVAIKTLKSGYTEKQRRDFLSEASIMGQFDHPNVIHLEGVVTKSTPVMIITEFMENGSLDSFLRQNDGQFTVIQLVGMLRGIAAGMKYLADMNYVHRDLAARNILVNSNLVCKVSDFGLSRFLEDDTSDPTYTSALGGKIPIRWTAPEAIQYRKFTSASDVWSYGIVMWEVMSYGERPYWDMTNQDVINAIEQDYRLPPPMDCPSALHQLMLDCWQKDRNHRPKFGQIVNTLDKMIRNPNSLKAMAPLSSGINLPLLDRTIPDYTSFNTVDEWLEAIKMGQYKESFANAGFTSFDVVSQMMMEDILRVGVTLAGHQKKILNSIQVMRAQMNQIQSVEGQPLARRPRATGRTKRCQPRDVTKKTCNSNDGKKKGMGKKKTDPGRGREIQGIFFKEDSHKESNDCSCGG
T6 sequence (Q9Y6M4 whole entry): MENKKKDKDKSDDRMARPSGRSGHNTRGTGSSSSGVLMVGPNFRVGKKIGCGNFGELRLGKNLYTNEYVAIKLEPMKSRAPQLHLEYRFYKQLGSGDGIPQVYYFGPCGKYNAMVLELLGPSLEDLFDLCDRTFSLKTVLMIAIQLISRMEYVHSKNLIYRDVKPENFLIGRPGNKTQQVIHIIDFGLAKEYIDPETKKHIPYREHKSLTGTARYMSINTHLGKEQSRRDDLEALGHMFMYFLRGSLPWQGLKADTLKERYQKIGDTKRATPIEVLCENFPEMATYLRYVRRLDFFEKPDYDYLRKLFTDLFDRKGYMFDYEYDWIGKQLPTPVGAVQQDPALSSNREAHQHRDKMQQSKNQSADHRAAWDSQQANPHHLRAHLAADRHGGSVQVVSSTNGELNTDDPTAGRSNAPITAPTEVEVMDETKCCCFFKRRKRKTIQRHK
Chain of CSNK1A1L (Q8N752 whole entry): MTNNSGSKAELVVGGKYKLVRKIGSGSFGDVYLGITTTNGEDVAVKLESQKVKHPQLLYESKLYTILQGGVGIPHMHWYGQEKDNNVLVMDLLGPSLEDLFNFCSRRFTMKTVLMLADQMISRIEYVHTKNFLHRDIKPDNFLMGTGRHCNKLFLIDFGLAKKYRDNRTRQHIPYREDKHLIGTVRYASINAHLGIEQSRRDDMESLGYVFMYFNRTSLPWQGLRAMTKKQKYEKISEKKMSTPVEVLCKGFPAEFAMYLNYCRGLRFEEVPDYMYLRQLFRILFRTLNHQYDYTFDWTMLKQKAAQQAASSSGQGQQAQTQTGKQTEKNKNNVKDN
Chain of IRAK4 (Q9NWZ3 whole entry): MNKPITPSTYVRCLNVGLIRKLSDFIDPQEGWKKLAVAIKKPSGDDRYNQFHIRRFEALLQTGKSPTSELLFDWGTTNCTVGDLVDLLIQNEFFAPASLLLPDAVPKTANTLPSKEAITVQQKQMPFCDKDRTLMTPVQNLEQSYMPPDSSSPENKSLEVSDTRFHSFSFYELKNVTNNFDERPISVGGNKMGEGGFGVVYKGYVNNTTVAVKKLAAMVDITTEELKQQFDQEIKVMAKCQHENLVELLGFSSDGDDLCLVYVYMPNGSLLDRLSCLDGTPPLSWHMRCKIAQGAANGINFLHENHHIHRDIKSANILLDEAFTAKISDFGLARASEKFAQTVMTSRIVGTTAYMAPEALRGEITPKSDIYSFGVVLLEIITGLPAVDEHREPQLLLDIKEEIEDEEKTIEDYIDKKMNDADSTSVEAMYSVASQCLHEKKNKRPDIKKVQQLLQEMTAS
T10 sequence (P00533 25-1210 T790M): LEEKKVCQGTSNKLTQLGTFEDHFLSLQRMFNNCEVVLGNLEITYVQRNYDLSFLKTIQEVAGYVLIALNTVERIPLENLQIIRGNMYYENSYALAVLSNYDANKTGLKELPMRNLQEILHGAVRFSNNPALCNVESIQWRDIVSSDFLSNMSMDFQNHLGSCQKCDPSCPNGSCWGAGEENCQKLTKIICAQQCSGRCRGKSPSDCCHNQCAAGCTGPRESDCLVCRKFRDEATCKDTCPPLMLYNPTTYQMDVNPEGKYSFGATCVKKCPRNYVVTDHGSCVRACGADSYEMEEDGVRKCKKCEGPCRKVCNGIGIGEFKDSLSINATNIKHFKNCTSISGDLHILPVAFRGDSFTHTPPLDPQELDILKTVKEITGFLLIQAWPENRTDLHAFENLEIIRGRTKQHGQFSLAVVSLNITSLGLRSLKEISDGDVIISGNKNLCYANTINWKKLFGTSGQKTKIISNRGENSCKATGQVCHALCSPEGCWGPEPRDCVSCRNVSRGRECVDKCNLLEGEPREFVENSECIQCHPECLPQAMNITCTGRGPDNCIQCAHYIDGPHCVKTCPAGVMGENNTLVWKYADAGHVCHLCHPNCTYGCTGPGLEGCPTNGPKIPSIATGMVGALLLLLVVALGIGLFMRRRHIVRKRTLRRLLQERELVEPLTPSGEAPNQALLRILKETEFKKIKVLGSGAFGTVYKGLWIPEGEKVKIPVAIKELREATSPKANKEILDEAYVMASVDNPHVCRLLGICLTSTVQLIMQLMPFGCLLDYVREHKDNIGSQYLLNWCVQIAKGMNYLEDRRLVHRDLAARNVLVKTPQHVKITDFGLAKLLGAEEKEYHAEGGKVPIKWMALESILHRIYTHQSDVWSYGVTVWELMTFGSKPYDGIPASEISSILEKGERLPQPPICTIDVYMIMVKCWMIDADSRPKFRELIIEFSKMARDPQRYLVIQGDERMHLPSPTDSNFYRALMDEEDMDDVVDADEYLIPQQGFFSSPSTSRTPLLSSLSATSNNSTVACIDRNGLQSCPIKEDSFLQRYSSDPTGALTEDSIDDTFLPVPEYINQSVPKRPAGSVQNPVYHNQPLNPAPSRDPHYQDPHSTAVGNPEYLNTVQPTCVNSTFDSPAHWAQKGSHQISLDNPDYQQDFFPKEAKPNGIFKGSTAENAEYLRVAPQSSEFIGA
T22 sequence (Q9HC98 whole entry): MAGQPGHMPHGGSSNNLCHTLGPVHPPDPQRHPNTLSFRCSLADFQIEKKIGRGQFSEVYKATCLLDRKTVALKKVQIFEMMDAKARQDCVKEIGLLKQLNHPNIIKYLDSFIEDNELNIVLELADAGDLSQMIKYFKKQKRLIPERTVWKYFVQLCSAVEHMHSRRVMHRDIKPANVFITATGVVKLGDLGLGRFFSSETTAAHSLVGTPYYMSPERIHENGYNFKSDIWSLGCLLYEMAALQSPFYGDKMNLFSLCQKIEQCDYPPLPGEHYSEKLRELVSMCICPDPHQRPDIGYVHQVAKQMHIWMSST

COc1ccc2[nH]c3c(=O)[nH]c4ccc(O)cc4c3c2c1 [Compound 55, 2-Hydroxy-10-methoxy-5,7-dihydro-6H-indolo[2,3-c]quinolin-6-one]
inhibition at 1 µM [1]: 3%
inhibition at 1 µM [2]: 67%
inhibition at 1 µM [3]: 42%
inhibition at 1 µM [4]: 100%
inhibition at 1 µM [5]: 24%
inhibition at 1 µM [6]: 13%
inhibition at 1 µM [7]: 35%
inhibition at 1 µM [8]: 63%
inhibition at 1 µM [9]: 62%
inhibition at 1 µM [10]: 28%
inhibition at 1 µM [11]: 96%
inhibition at 1 µM [12]: 7%
inhibition at 1 µM [13]: 8%
inhibition at 1 µM [14]: 30%
inhibition at 1 µM [15]: 21%
inhibition at 1 µM [16]: 81%
inhibition at 1 µM [17]: 42%
inhibition at 1 µM [18]: 38%
inhibition at 1 µM [19]: 58%
inhibition at 1 µM [20]: 17%
inhibition at 1 µM [21]: 61%
inhibition at 1 µM [22]: 33%
inhibition at 1 µM [23]: 36%
inhibition at 1 µM [24]: 67%
inhibition at 1 µM [25]: 11%
inhibition at 1 µM [26]: 12%
inhibition at 1 µM [27]: 44%
inhibition at 1 µM [28]: 2%
inhibition at 1 µM [29]: 6%
inhibition at 1 µM [30]: 28%
inhibition at 1 µM [31]: 8%
inhibition at 1 µM [32]: 6%
inhibition at 1 µM [33]: 15%
inhibition at 1 µM [34]: 4%
inhibition at 1 µM [35]: 8%
inhibition at 1 µM [36]: 17%
inhibition at 1 µM [37]: 49%
inhibition at 1 µM [38]: 61%
inhibition at 1 µM [39]: 0%
